Results taken from patent publication US20180110785A1, “METHODS AND COMPOSITIONS FOR AMELIORATING SYMPTOMS ASSOCIATED WITH CHROMOSOMAL ABNORMALITIES” (priority 2014, published 2018).
Where “and” joins values, the source holds several entries; their conditions need not be identical. Equal entries are not always repeated. Entries after “also recorded” stand apart in the source; their conditions may differ. Where two headings read alike, the source gives them in different places.

Legend:
[1] = system: Sonic hedgehog (Shh) in parotid saliva; test: Sonic hedgehog in parotid saliva of patients with taste dysfunction after oral theophylline (Example 2), ELISA; format: in vivo, human; settings: for saliva sonic hedgehog after treatment with oral theophylline: mean ± SEM
[2] = system: patients with taste dysfunction; test: Subjective taste acuity and flavor perception in hypogeusic patients after oral theophylline (Example 2); format: in vivo, human; settings: for flavor perception, degree of improvement / taste acuity, degree of improvement: mean ± SEM
Procedure: Shh was measured in parotid saliva of both normal subjects and in patients with taste dysfunction of multiple etiologies by use of a sensitive spectrophotometric ELISA assay. Taste dysfunction was defined clinically by both subjective changes of taste acuity and flavor perception and by impaired gustometry. Patients were treated with oral theophylline 200-800 mg daily for 2-10 months with saliva Shh and taste function measured at intervals of 2-8 months.
Subjective statements of taste acuity loss and loss of flavor perception were quantitated by use of a scale from 0-100 with 100 reflecting total loss of taste acuity or flavor perception, 0 reflecting no loss and a number between 0-100 reflecting appropriate degree of loss. […] Mean±SEM of loss degree was measured among all patients and each pathology initiating taste dysfunction.
Saliva Shh and measurements of taste function by use of subjective responses of acuity and flavor perception and in olfactometry was measured at intervals of 2-6 months in these patients.

[3] = system: patients with smell loss (hyposmia); settings: prior hyposmic patients treated with oral theophylline (earlier studies); cited from earlier work
[4] = system: Sonic hedgehog (Shh) in parotid saliva; test: Saliva sonic hedgehog in patients with taste dysfunction after oral theophylline (Example 3), ELISA; format: in vivo, human
[5] = system: Sonic hedgehog (SHH) in nasal mucus; test: Sonic hedgehog in nasal mucus of hyposmic patients after oral theophylline, spectrophotometric ELISA; format: in vivo, human
[6] = system: patients with smell loss (hyposmia); test: Smell function (olfactometry, subjective) in hyposmic patients after oral theophylline; format: in vivo, human
[7] = system: patients with taste dysfunction; test: Gustometry (DT, RT, ME for four tastants) before and after theophylline (Example 3)
[8] = system: ShhN (sonic hedgehog) in nasal mucus; test: ShhN nasal mucus vs PDE inhibitor comparison (Example 10); format: in vivo, human
[9] = patients with taste dysfunction
[10] = theophylline treated (81), mean ± SEM

## Cn1c(=O)c2[nH]cnc2n(C)c1=O [Theophylline, theophylline]
[1]; hypogeusic patients after treatment (66), 200-1000 mg, 2-10 months
  saliva sonic hedgehog after treatment with oral theophylline: 199 ± 20 pmol/mL
[1]; men (61) after treatment
  saliva sonic hedgehog after treatment with oral theophylline: 180 ± 15 pmol/mL
[1]; [9]
  Shh in parotid saliva after oral theophylline: increased saliva Shh; also recorded: increased in parotid saliva to levels above those in normal subjects or in untreated patients
[1]; women (58) after treatment
  saliva sonic hedgehog after treatment with oral theophylline: 213 ± 33 pmol/mL
[2]; after oral theophylline
  patients with improvement in both subjective taste acuity and flavor perception: about 60%
[2]; all patients (79)
  flavor perception, improvement number: 45
  flavor perception, percent improved: 63%
  taste acuity, percent improved: 63%
  flavor perception, degree of improvement: 24 ± 4%
  taste acuity, degree of improvement: 28 ± 4^+ %
[2]; all patients (79), oral theophylline
  taste acuity, improvement number: 45
[2]; men (38)
  flavor perception, improvement number: 22
  flavor perception, percent improved: 58%
  taste acuity, improvement number: 21
  taste acuity, percent improved: 55%
  flavor perception, degree of improvement: 18 ± 4%
  taste acuity, degree of improvement: 20 ± 5%
[2]; [9]
  taste function after theophylline: improved both subjective taste function and gustometry
[2]; women (41)
  flavor perception, improvement number: 23
  flavor perception, percent improved: 54%
  taste acuity, improvement number: 24
  taste acuity, percent improved: 59%
  flavor perception, degree of improvement: 36 ± 6%
  taste acuity, degree of improvement: 35 ± 6%
[3]
  smell improvement, percent of patients: over 50%
[4]; PIHH (27), mean ± SEM
  saliva sonic hedgehog after oral theophylline: 210 ± 12 pmol/mL
[4]; allergic rhinitis (26), mean ± SEM
  saliva sonic hedgehog after oral theophylline: 212 ± 14^+ pmol/ml
[4]; anesthesia induced (2)
  saliva sonic hedgehog after oral theophylline: 151 pmol/mL
[4]; congenital (10), mean ± SEM
  saliva sonic hedgehog after oral theophylline: 132 ± 23 pmol/mL
[4]; head injury (14), mean ± SEM
  saliva sonic hedgehog after oral theophylline: 115 ± 15 pmol/mL
[4]; [9]
  increase of saliva Shh levels by theophylline: ~2 fold
[4]; post radiation (1)
  saliva sonic hedgehog after oral theophylline: 145 pmol/mL
[4]; theophylline treated patients (81), mean ± SEM
  saliva sonic hedgehog: 102 ± 10 pmol/mL
[5]; PIHH patients (10), mean ± SEM
  sonic hedgehog concentration in nasal mucus, treatment with oral theophylline: 70735 ± 5751^a,a1 (10) pg/ml
[5]; all hyposmic patients (30 in Table 3, 31 in Table 4), mean ± SEM
  sonic hedgehog concentration in nasal mucus, treatment with oral theophylline: 49191 ± 1710^c,a1 (30) pg/ml and 49191 ± 1710^a (31) pg/ml
[5]; allergic rhinitis patients (11), mean ± SEM
  sonic hedgehog concentration in nasal mucus, treatment with oral theophylline: 24460 ± 2610^a,a1 (11) pg/ml
[5]; congenital smell loss patients (9), mean ± SEM
  sonic hedgehog concentration in nasal mucus, treatment with oral theophylline: 3825 ± 474^a,a1 (9) pg/ml
[5]; hyposmic men (17), oral theophylline 400-800 mg daily for 2-10 months, mean ± SEM
  sonic hedgehog concentration in nasal mucus, treatment with oral theophylline: 47952 ± 3085^a,a1 (17) pg/ml
[5]; hyposmic women (13), oral theophylline 400-800 mg daily for 2-10 months, mean ± SEM
  sonic hedgehog concentration in nasal mucus, treatment with oral theophylline: 3859 ± 303^a,a1 (13) pg/ml
[5]; men, oral theophylline
  increase of nasal mucus SHH over the untreated state: 320 times
[5]; patient post anesthesia, oral theophylline
  increase of nasal mucus SHH over the untreated state: 48 times
[5]; patients with PIHH, oral theophylline
  increase of nasal mucus SHH over the untreated state: 46 times
[5]; patients with allergic rhinitis, oral theophylline
  increase of nasal mucus SHH over the untreated state: over 719 times
[5]; patients with congenital smell loss, oral theophylline
  increase of nasal mucus SHH over the untreated state: over 21 times
[5]; patients with hyposmia, oral theophylline
  SHH levels in nasal mucus versus untreated state: significantly increased SHH levels in nasal mucus
[5]; post general anesthesia patient (1)
  sonic hedgehog concentration in nasal mucus, treatment with oral theophylline: 57 (1) pg/ml
[5]; women, oral theophylline
  increase of nasal mucus SHH over the untreated state: 17 times
[6]; PIHH (10)
  smell improvement, patient number: 8
  smell improvement, percent of patients: 80%
[6]; all treated patients (31), oral theophylline
  smell improvement, patient number: 19
[6]; all treated patients, oral theophylline
  smell improvement, percent of patients: 60% and 61%
[6]; allergic rhinitis (11)
  smell improvement, patient number: 5
  smell improvement, percent of patients: 45%
[6]; congenital (9)
  smell improvement, patient number: 5
  smell improvement, percent of patients: 56%
[6]; post general anesthesia (1)
  smell improvement, patient number: 1
  smell improvement, percent of patients: 100%
[7]; [9]
  taste / gustometric function after theophylline: improved subjectively in taste function; also recorded: improved gustometric functions of treated patients
[7]; [10]
  HCl DT: 3.6 ± 0.2
  HCl ME: 54 ± 5
  HCl RT: 3.7 ± 0.3
  NaCl DT (detection threshold): 3.4 ± 0.2
  NaCl ME (magnitude estimation): 58 ± 5
  NaCl RT (recognition threshold): 3.6 ± 0.2
  sucrose DT: 3.3 ± 0.2
  sucrose ME: 49 ± 5
  sucrose RT: 3.6 ± 0.2
  urea DT: 3.9 ± 0.3
  urea ME: 54 ± 5
  urea RT: 3.9 ± 0.3

## O=C1CCc2cc(OCCCCc3nnnn3C3CCCCC3)ccc2N1 [cilostazol]
[8]; Patient ID No. 7, 100 mg cilostazol once per day orally for 4 months
  sonic hedgehog levels in nasal mucus, mean: 769 pg/mL

## O=C(Nc1c(Cl)cncc1Cl)c1ccc(OC(F)F)c(OCC2CC2)c1 [roflumilast]
[8]; Patient ID No. 11, 500 micrograms daliresp (roflumilast) orally once per day for 4 months
  sonic hedgehog levels in nasal mucus: 6660 pg/mL
